# Assays:
# [1] = target: T1, p53 (Homo sapiens, UniProt P04637, S241A); assay: binding test of p53 mutant (Supplementary Figure […]), qualitative
# T1 construct: gene TP53; full-length
# [2] = target: T2, p53 (Homo sapiens, UniProt P04637, R175H); assay: binding test of p53 mutant (Supplementary Figure 4a), qualitative
# T2 construct: gene TP53
# [3] = target: T3, p53 (Homo sapiens, UniProt P04637, S240E); assay: binding test of p53 mutant (Supplementary Figure […]), qualitative
# T3 construct: gene TP53; full-length
# [4] = target: T4, p53 (Homo sapiens, UniProt P04637); assay: intrinsic tyrosine fluorescence quenching titration of purified p53 DBD; PVDF membrane-binding assay; parameters: gene TP53
# [5] = target: T4, p53; assay: UV photo-crosslinking, MALDI-TOF MS and LC-MS/MS site mapping; thermal shift (Tm […] to […] °C); format: binding; parameters: gene TP53; DBD, residues 100–300
# [6] = target: T4, p53; assay: PVDF membrane-binding assay with purified p53; p53 immunoprecipitation with LC-MS/MS of bound ceramide; parameters: gene TP53; purified recombinant p53; endogenous p53 pulled down from A549 cells
smiles,measurement,setting,value
"CCCCCCCCCCCCC/C=C/[C@@H](O)[C@H](CO)NC(=O)CCCCCCCCCCCCCCC[n+]1ccccc1 [PC16, D-erythro-2-N-[16′-(1′′-pyridinium)-hexadecanoyl]-sphingosine bromide]","binding test of p53 mutant (Supplementary Figure 4), qualitative",[1],substitutions with aa having shorter side chains (S241A or S240E) did not affect the binding
same,"binding test of p53 mutant (Supplementary Figure 4a), qualitative",[2],"R175H, did not affect the binding of PC16 to p53 (Supplementary Figure 4a)"
same,"binding test of p53 mutant (Supplementary Figure 4), qualitative",[3],substitutions with aa having shorter side chains (S241A or S240E) did not affect the binding
same,Kd,[4],~60 nM
"C#CCCCC1(CCCCCCCCC(=O)N[C@@H](CO)[C@H](O)/C=C/CCCCCCCCCCCCC)N=N1 [PAC, N-(9-(3-pent-4-ynyl-3-H-diazirin-3-yl)-nonanoyl)-D-erythro-sphingosine]","UV photo-crosslinking, MALDI-TOF MS and LC-MS/MS site mapping; thermal shift (Tm)",[5],"LC-MS/MS data revealed two ceramide-modified residues, Ser240 and Ser241 (Fig. 3b), in the PAC-modified sample only"
"CCCCCCCCCCCCC/C=C/[C@@H](O)[C@H](CO)NC(=O)CCCCCCCCCCCCCCC [C16-ceramide, N-(hexadecanoyl)-sphing-4-enine]",PVDF membrane-binding assay with purified p53; p53 immunoprecipitation with LC-M,[6],these experiments demonstrated the strong preference of p53 for C16-ceramide

# Reference: publication PMC6175828, “C16-ceramide is a natural regulatory ligand of p53 in cellular stress response” (Nature Communications, 2018)
